According to US9156831B2, “Chemical compounds” (ASTRAZENECA AB, priority 2013, dated 2015):

Key:
KG1 = assay: Cell proliferation assay (MTS); assay type: cell-based, human
Procedure: (§1) The sensitivity of a panel of human cancer cell lines to the effects of compounds was determined in a standard proliferation assay.
(§2) Cells were plated in 96 well plates at densities of 1000-6000 cells per well in RPMI media containing 10% FBS. After incubation at 37° C. for 16 hours, various concentrations of compound were added to the assay plates. After incubation for an additional 72 h, the viable cells were determined by the addition of MTS reagent (Promega #3582) to each well for 2 h. MTS is a tetrazolium salt that is bioreduced by metabolically active cells in the presence of an electron coupling reagent to formazan. The formazan product was then quantitated by absorbance at 490 nm, as an indicator of the relative number of live cells. In order to determine the GI50 (concentration at which growth of cells was inhibited by 50%) the relative number of cells present at the time of drug addition was determined by comparison with the MTS readout before the drug was added, and this value was subtracted from the 72 hr value of untreated cells as a measure of cell growth during the assay.

SNU1 = assay: Cell proliferation assay (MTS); assay type: cell-based, human
Procedure: (§3) The sensitivity of a panel of human cancer cell lines to the effects of compounds was determined in a standard proliferation assay. Cell lines were sourced through the AstraZeneca Cell Bank.
as §2

JVM3 = assay: Cell proliferation assay (MTS); assay type: cell-based, human
Procedure: as §1, §2

SW780 = assay: Cell proliferation assay (MTS); assay type: cell-based, human
Procedure: as §1, §2

H647 = assay: Cell proliferation assay (MTS); assay type: cell-based, human
Procedure: as §1, §2

SNU601 = assay: Cell proliferation assay (MTS); assay type: cell-based, human
Procedure: as §3, §2

HCT8 = assay: Cell proliferation assay (MTS); assay type: cell-based, human
Procedure: as §3, §2

HRA19 = assay: Cell proliferation assay (MTS); assay type: cell-based, human
Procedure: as §3, §2

HEP3B = assay: Cell proliferation assay (MTS); assay type: cell-based, human
Procedure: as §1, §2

MV411 = assay: Cell proliferation assay (MTS); assay type: cell-based, human
Procedure: as §1, §2

HPAFII = assay: Cell proliferation assay (MTS); assay type: cell-based, human
Procedure: as §1, §2

HT1376 = assay: Cell proliferation assay (MTS); assay type: cell-based, human
Procedure: as §3, §2

HUH7 = assay: Cell proliferation assay (MTS); assay type: cell-based, human
Procedure: as §1, §2

WSUDLCL2 = assay: Cell proliferation assay (MTS); assay type: cell-based, human
Procedure: as §1
(§4) Cells were plated in 96 well plates at densities of 1000-6000 cells per well in RPMI media containing 10% FBS. After incubation at 37° C. for 16 hours, various concentrations of compound were added to the assay plates. After incubation for an additional 72 h, the viable cells were determined by the addition of MTS reagent (Promega #3582) to each well for 2 h. […] The formazan product was then quantitated by absorbance at 490 nm, as an indicator of the relative number of live cells. In order to determine the GI50 (concentration at which growth of cells was inhibited by 50%) the relative number of cells present at the time of drug addition was determined by comparison with the MTS readout before the drug was added, and this value was subtracted from the 72 hr value of untreated cells as a measure of cell growth during the assay.

SW1710 = assay: Cell proliferation assay (MTS); assay type: cell-based, human
Procedure: as §1, §4

K562 = assay: Cell proliferation assay (MTS); assay type: cell-based, human
Procedure: as §1, §2

RAMOS = assay: Cell proliferation assay (MTS); assay type: cell-based, human
Procedure: as §1, §2

UMUC3 = assay: Cell proliferation assay (MTS); assay type: cell-based, human
Procedure: as §1, §2

HCC1187 = assay: Cell proliferation assay (MTS); assay type: cell-based, human
Procedure: as §3, §2

SW900 = assay: Cell proliferation assay (MTS); assay type: cell-based, human
Procedure: as §3, §2

MONOMAC6 = assay: Cell proliferation assay (MTS); assay type: cell-based, human
Procedure: as §1, §2

BT474 xenograft = assay: Tumour growth inhibition, BT474 xenograft model; assay type: in vivo, mouse
Procedure: BT474 is an estrogen receptor positive breast tumour cell lines with elevated Her2 expression and carries a mutation in the PIK3CA gene (K111N). Female Swiss athymic nude mice (swiss nu/nu-AZUK) were transplanted subcutaneously with human epithelial breast ductal carcinoma cell line BT474c (derived in AZ from BT474-ATCC HTB-20) tumours passaged in mice. Mice were implanted with 0.36 mg 60 day oestrogen pellet (Innovative Research of America) 24 hours prior to cell implantation. 5×10^6 cells in 50% matrigel (BD Bioscience) were injected s.c. on the left flank of the animals.
Animals were randomised into groups of 10-15 when tumours reached a volume of ˜200-300 mm^3 and treatment commenced. Animals were dosed for 3-4 weeks by peroral route, with compound in a suitable vehicle at defined doses and schedules. Tumours were measured two-three times weekly by caliper and volume of tumours calculated using elliptical formula (pi/6×width×width×length).

SNU878 = assay: Cell proliferation assay (MTS); assay type: cell-based, human
Procedure: as §1, §2

YAPC = assay: Cell proliferation assay (MTS); assay type: cell-based, human
Procedure: as §3, §2

SNU668 = assay: Cell proliferation assay (MTS); assay type: cell-based, human
Procedure: as §1, §4

PANC0403 = assay: Cell proliferation assay (MTS); assay type: cell-based, human
Procedure: as §1, §2

MHCC97L = assay: Cell proliferation assay (MTS); assay type: cell-based, human
Procedure: as §3, §2

U937 = assay: Cell proliferation assay (MTS); assay type: cell-based, human
Procedure: as §1, §2

PANC1005 = assay: Cell proliferation assay (MTS); assay type: cell-based, human
Procedure: as §1, §2

SW403 = assay: Cell proliferation assay (MTS); assay type: cell-based, human
Procedure: as §1, §2

SNU16 = assay: Cell proliferation assay (MTS); assay type: cell-based, human
Procedure: as §1, §2

PANC1 = assay: Cell proliferation assay (MTS); assay type: cell-based, human
Procedure: as §1, §4

HT1197 = assay: Cell proliferation assay (MTS); assay type: cell-based, human
Procedure: as §1, §2

OE33 = assay: Cell proliferation assay (MTS); assay type: cell-based, human
Procedure: as §1, §4

L363 = assay: Cell proliferation assay (MTS); assay type: cell-based, human
Procedure: as §1, §2

5637 = assay: Cell proliferation assay (MTS); assay type: cell-based, human
Procedure: as §1, §2

MGHU3 = assay: Cell proliferation assay (MTS); assay type: cell-based, human
Procedure: as §3, §2

[1] = Homo sapiens, Stomach, PIK3CA WT
[2] = Homo sapiens, Bladder, PIK3CA WT
[3] = Homo sapiens, Blood/lymph, PIK3CA WT
[4] = Homo sapiens, Pancreas, PIK3CA WT

## CCn1nc(C2CCN(C(=O)CCO)CC2)nc1-c1cnc(N)c(-c2nnc(C(C)(C)C)o2)n1 [Example 3, 1-(4-(5-(5-amino-6-(5-tert-butyl-1,3,4-oxadiazol-2-yl)pyrazin-2-yl)-1-ethyl-1H-1,2,4-triazol-3-yl)piperidin-1-yl)-3-hydroxypropan-1-one]
KG1
  Category: Resistant (resistant (GI50>1.0 μM))
KG1; Homo sapiens, KG-1, Blood/lymph, PIK3CA WT
  GI50: 6.59 µM
SNU1
  Category: Resistant (resistant (GI50>1.0 μM))
SNU1; [1]
  GI50: 15 µM
JVM3
  Category: Resistant (resistant (GI50>1.0 μM))
JVM3; Homo sapiens, JVM-3, Blood/lymph, PIK3CA WT
  GI50: 30 µM
SW780
  Category: Resistant (resistant (GI50>1.0 μM))
SW780; [2]
  GI50: 19.2 µM
H647
  Category: Resistant (resistant (GI50>1.0 μM))
H647; Homo sapiens, NCI-H647, Lung, PIK3CA WT
  GI50: 11.3 µM
SNU601
  Category: Sensitive (sensitive (GI50<=1.0 μM))
SNU601; Homo sapiens, SNU-601, Stomach, PIK3CA MUT
  GI50: 0.506 µM
HCT8
  Category: Resistant (resistant (GI50>1.0 μM))
HCT8; Homo sapiens, HCT-8, Colon, PIK3CA MUT
  GI50: 2.51 µM
HRA19
  Category: Sensitive (sensitive (GI50<=1.0 μM))
HRA19; Homo sapiens, Rectum, PIK3CA MUT
  GI50: 0.393 µM
HEP3B
  Category: Resistant (resistant (GI50>1.0 μM))
HEP3B; Homo sapiens, Liver, PIK3CA WT
  GI50: 6.69 µM
MV411
  Category: Sensitive (sensitive (GI50<=1.0 μM))
MV411; Homo sapiens, MV4-11, Blood/lymph, PIK3CA WT
  GI50: 0.382 µM
HPAFII
  Category: Resistant (resistant (GI50>1.0 μM))
HPAFII; Homo sapiens, HPAF-II, Pancreas, PIK3CA WT
  GI50: 2.63 µM
HT1376
  Category: Resistant (resistant (GI50>1.0 μM))
HT1376; Homo sapiens, HT-1376, Bladder, PIK3CA WT
  GI50: 8.2 µM
HUH7
  Category: Resistant (resistant (GI50>1.0 μM))
HUH7; Homo sapiens, Huh-7, Liver, PIK3CA WT
  GI50: 16 µM
WSUDLCL2
  Category: Resistant (resistant (GI50>1.0 μM))
WSUDLCL2; [3]
  GI50: 17.7 µM
SW1710
  Category: Resistant (resistant (GI50>1.0 μM))
SW1710; [2]
  GI50: 5.34 µM
K562
  Category: Resistant (resistant (GI50>1.0 μM))
K562; [3]
  GI50: 30 µM
RAMOS
  Category: Resistant (resistant (GI50>1.0 μM))
RAMOS; [3]
  GI50: 30 µM
UMUC3
  Category: Resistant (resistant (GI50>1.0 μM))
UMUC3; [2]
  GI50: 6.22 µM
HCC1187
  Category: Sensitive (sensitive (GI50<=1.0 μM))
HCC1187; Homo sapiens, Breast, PIK3CA WT
  GI50: 0.509 µM
SW900
  Category: Resistant (resistant (GI50>1.0 μM))
SW900; Homo sapiens, Lung, PIK3CA WT
  GI50: 30 µM
MONOMAC6
  Category: Resistant (resistant (GI50>1.0 μM))
MONOMAC6; Homo sapiens, MONO-MAC-6, Blood/lymph, PIK3CA WT
  GI50: 2.62 µM
BT474 xenograft; Example 3 alone 25 mg/kg BID every day, FIG. 11
  tumour growth: partially inhibited growth
BT474 xenograft; Example 3 alone 25 mg/kg BID, 2 days on/5 days off, vs vehicle, FIG. 10
  tumour growth: partially inhibited tumour growth
BT474 xenograft; Example 3 alone 50 mg/kg BID, 2 days on/5 days off, vs vehicle, FIG. 9
  tumour growth: partially inhibited tumour growth
SNU878
  Category: Resistant (resistant (GI50>1.0 μM))
SNU878; Homo sapiens, Liver, PIK3CA WT
  GI50: 16.1 µM
YAPC
  Category: Resistant (resistant (GI50>1.0 μM))
YAPC; [4]
  GI50: 30 µM
SNU668
  Category: Resistant (resistant (GI50>1.0 μM))
SNU668; [1]
  GI50: 15.5 µM
PANC0403
  Category: Resistant (resistant (GI50>1.0 μM))
PANC0403; Homo sapiens, Panc 04.03, Pancreas, PIK3CA WT
  GI50: 6.47 µM
MHCC97L
  Category: Resistant (resistant (GI50>1.0 μM))
MHCC97L; Homo sapiens, Liver, PIK3CA WT
  GI50: 3.35 µM
U937
  Category: Resistant (resistant (GI50>1.0 μM))
U937; Homo sapiens, U-937, Blood/lymph, PIK3CA WT
  GI50: 7.34 µM
PANC1005
  Category: Resistant (resistant (GI50>1.0 μM))
PANC1005; [4]
  GI50: 2.61 µM
SW403
  Category: Resistant (resistant (GI50>1.0 μM))
SW403; Homo sapiens, SW-403, Colon, PIK3CA MUT
  GI50: 2.61 µM
SNU16
  Category: Resistant (resistant (GI50>1.0 μM))
SNU16; Homo sapiens, SNU-16, Stomach, PIK3CA WT
  GI50: 16.8 µM
PANC1
  Category: Resistant (resistant (GI50>1.0 μM))
PANC1; Homo sapiens, PANC-1, Pancreas, PIK3CA WT
  GI50: 5.34 µM
HT1197
  Category: Resistant (resistant (GI50>1.0 μM))
HT1197; Homo sapiens, Bladder, PIK3CA MUT
  GI50: 2.8 µM
OE33
  Category: Resistant (resistant (GI50>1.0 μM))
OE33; Homo sapiens, Esophagus, PIK3CA WT
  GI50: 9.86 µM
L363
  Category: Sensitive (sensitive (GI50<=1.0 μM))
L363; Homo sapiens, L-363, Blood/lymph, PIK3CA MUT
  GI50: 0.681 µM
5637
  Category: Resistant (resistant (GI50>1.0 μM))
5637; [2]
  GI50: 9.63 µM
MGHU3
  Category: Resistant (resistant (GI50>1.0 μM))
MGHU3; [2]
  GI50: 11.5 µM
